Molecular target: KDR (Homo sapiens, UniProt P35968)
Test: KDR cellular assay (KDR receptor phosphorylation ELISA)
Format: cell-based
Design: expressed in transfected cells; host or cells: 3T3 (embryonic mouse) cells
Details: KDR transfected 3T3 (embryonic mouse) cells, VEGF stimulated; read-out: IC50 inhibition of KDR phosphorylation
Summary of the method: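 KDR-transfected mouse 3T3 cells treated 20 min at 37° C with half-log compound dilutions, then stimulated 10 min with VEGF (100 ng/ml solution). Lysates captured on anti-KDR plates; phosphorylation by biotin antibody/streptavidin-HRP ELISA at 450 nm. IC50 by non-linear regression.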

Sequence of KDR (P35968 20-1356): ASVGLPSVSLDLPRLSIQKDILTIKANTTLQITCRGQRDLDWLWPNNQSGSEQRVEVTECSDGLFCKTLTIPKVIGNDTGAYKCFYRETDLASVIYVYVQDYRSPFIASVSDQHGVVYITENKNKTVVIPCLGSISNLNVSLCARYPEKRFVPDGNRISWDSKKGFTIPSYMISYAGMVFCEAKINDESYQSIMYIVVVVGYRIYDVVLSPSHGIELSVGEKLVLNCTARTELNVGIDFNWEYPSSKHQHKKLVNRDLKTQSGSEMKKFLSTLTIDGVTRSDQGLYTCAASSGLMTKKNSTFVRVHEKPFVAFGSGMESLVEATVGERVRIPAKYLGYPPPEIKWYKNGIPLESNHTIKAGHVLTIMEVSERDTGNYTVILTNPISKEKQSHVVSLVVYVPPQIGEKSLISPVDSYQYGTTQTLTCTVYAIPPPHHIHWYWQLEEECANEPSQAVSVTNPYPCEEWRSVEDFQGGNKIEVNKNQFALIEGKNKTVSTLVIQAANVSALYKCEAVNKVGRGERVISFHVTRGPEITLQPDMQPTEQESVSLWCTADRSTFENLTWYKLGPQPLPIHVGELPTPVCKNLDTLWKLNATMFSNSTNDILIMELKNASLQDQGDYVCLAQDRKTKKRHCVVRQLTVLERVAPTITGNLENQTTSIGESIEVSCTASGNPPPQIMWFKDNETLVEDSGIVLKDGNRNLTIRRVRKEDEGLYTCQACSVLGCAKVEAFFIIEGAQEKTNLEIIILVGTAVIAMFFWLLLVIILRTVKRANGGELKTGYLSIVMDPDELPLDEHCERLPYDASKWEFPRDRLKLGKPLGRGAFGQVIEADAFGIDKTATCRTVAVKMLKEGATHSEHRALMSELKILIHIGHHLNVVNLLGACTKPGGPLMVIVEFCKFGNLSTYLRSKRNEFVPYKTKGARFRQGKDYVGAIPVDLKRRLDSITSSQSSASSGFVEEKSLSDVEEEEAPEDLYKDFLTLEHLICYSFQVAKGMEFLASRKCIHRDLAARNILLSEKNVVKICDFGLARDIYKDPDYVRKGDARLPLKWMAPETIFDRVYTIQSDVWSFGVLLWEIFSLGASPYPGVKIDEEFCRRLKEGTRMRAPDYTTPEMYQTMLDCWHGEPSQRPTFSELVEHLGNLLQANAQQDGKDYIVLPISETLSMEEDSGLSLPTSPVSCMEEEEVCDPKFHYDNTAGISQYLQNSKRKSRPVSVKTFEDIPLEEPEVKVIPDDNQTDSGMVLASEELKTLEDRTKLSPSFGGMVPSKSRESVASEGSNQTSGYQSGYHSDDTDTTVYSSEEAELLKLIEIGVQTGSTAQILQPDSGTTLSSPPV

Row | SMILES | IC50
1 | CNC(=O)Cn1cc(Nc2ncc(Cl)c(N[C@@H]3[C@H]4CC[C@H](C4)[C@@H]3C(N)=O)n2)cn1 [Example 88, (1R,2S,3R,4S)-3-{[5-chloro-2-({1-[2-(methylamino)-2-oxoethyl]-1H-pyrazol-4-yl}amino)pyrimidin-4-yl]amino}bicyclo[2.2.1]heptane-2-carboxamide] | 100 to 1000 nM
2 | CN(C)CC(=O)N1CCC(n2cc(Nc3ncc(Cl)c(N[C@H]4[C@@H](C(N)=O)[C@@H]5C=C[C@H]4C5)n3)cn2)CC1 [Example 89, (1S,2S,3R,4R)-3-{[5-chloro-2-({1-[1-(N,N-dimethylglycyl)piperidin-4-yl]-1H-pyrazol-4-yl}amino)pyrimidin-4-yl]amino}bicyclo[2.2.1]hept-5-ene-2-carboxamide] | < 100 nM
3 | CN1CCN(CCn2cc(Nc3ncc(Cl)c(N[C@@H]4[C@H]5CC[C@H](C5)[C@@H]4C(N)=O)n3)cn2)CC1 [Example 90, (1R,2S,3R,4S)-3-{[5-chloro-2-({1-[2-(4-methylpiperazin-1-yl)ethyl]-1H-pyrazol-4-yl}amino)pyrimidin-4-yl]amino}bicyclo[2.2.1]heptane-2-carboxamide] | < 100 nM
4 | CN1CCN(CCn2cc(Nc3ncc(Cl)c(N[C@H]4[C@@H](C(N)=O)[C@@H]5C=C[C@H]4C5)n3)cn2)CC1 [Example 91, (1S,2S,3R,4R)-3-{[5-chloro-2-({1-[2-(4-methylpiperazin-1-yl)ethyl]-1H-pyrazol-4-yl}amino)pyrimidin-4-yl]amino}bicyclo[2.2.1]hept-5-ene-2-carboxamide] | < 100 nM
5 | CC(=O)N1CCC(n2cc(Nc3ncc(Cl)c(N[C@H]4[C@@H](C(N)=O)[C@@H]5C=C[C@H]4C5)n3)cn2)CC1 [Example 92, (1S,2S,3R,4R)-3-[(2-{[1-(1-acetylpiperidin-4-yl)-1H-pyrazol-4-yl]amino}-5-chloropyrimidin-4-yl)amino]bicyclo[2.2.1]hept-5-ene-2-carboxamide] | 100 to 1000 nM
6 | NC(=O)[C@H]1[C@@H]2CC[C@@H](C2)[C@H]1Nc1nc(Nc2cnn(CCO)c2)ncc1Cl [Example 93, (1R,2S,3R,4S)-3-[(5-chloro-2-{[1-(2-hydroxyethyl)-1H-pyrazol-4-yl]amino}pyrimidin-4-yl)amino]bicyclo[2.2.1]heptane-2-carboxamide] | 100 to 1000 nM
7 | CN1CCC(Cn2cc(Nc3ncc(Cl)c(N[C@H]4[C@@H](C(N)=O)[C@@H]5C=C[C@H]4C5)n3)cn2)CC1 [Example 97, (1S,2S,3R,4R)-3-{[5-chloro-2-({1-[(1-methylpiperidin-4-yl)methyl]-1H-pyrazol-4-yl}amino)pyrimidin-4-yl]amino}bicyclo[2.2.1]hept-5-ene-2-carboxamide] | < 100 nM
8 | CC(C)n1cc(Nc2ncc(Cl)c(N[C@H]3[C@@H](C(N)=O)[C@@H]4C=C[C@H]3C4)n2)cn1 [Example 98, (1S,2S,3R,4R)-3-({5-chloro-2-[(1-isopropyl-1H-pyrazol-4-yl)amino]pyrimidin-4-yl}amino)bicyclo[2.2.1]hept-5-ene-2-carboxamide] | < 100 nM
9 | CC(C)CCn1cc(Nc2ncc(Cl)c(N[C@H]3[C@@H](C(N)=O)[C@@H]4C=C[C@H]3C4)n2)cn1 [Example 99, (1S,2S,3R,4R)-3-[(5-chloro-2-[1-(3-methylbutyl)-1H-pyrazol-4-yl]aminopyrimidin-4-yl)amino]bicyclo[2.2.1]hept-5-ene-2-carboxamide] | < 100 nM
10 | COCCOCCn1cc(Nc2ncc(Cl)c(N[C@H]3[C@@H](C(N)=O)[C@@H]4C=C[C@H]3C4)n2)cn1 [Example 100, (1S,2S,3R,4R)-3-{[5-chloro-2-({1-[2-(2-methoxyethoxy)ethyl]-1H-pyrazol-4-yl}amino)pyrimidin-4-yl]amino}bicyclo[2.2.1]hept-5-ene-2-carboxamide] | < 100 nM
11 | Cn1cc(Nc2ncc(Cl)c(Nc3ccccc3C3(O)CCC3)n2)cn1 [Example 101, 1-[2-({5-chloro-2-[(1-methyl-1H-pyrazol-4-yl)amino]pyrimidin-4-yl}amino)phenyl]cyclobutanol] | 100 to 1000 nM
12 | NC(=O)[C@@H]1[C@H](Nc2nc(Nc3cnn(C[C@H]4CCCN4)c3)ncc2Cl)[C@H]2C=C[C@@H]1C2 [Example 102, (1S,2S,3R,4R)-3-{[5-chloro-2-({1-[(2R)-pyrrolidin-2-ylmethyl]-1H-pyrazol-4-yl}amino)pyrimidin-4-yl]amino}bicyclo[2.2.1]hept-5-ene-2-carboxamide] | < 100 nM
13 | NC(=O)[C@@H]1[C@H](Nc2nc(Nc3cnn(CC(=O)O)c3)ncc2Cl)[C@H]2C=C[C@@H]1C2 [Example 103, {4-[(4-{[(1R,2R,3S,4S)-3-carbamoylbicyclo[2.2.1]hept-5-ene-2-yl]amino}-5-chloropyrimidin-2-yl)amino]-1H-pyrazol-1-yl}acetic acid] | 100 to 1000 nM
14 | C[C@@H](O)Cn1cc(Nc2ncc(Cl)c(N[C@@H]3[C@H]4CC[C@H](C4)[C@@H]3C(N)=O)n2)cn1 [Example 104, (1R,2S,3R,4S)-3-{[5-chloro-2-({1-[(2R)-2-hydroxypropyl]-1H-pyrazol-4-yl}amino)pyrimidin-4-yl]amino}bicyclo[2.2.1]heptane-2-carboxamide] | 100 to 1000 nM
15 | C[C@@H](O)Cn1cc(Nc2ncc(Cl)c(N[C@H]3[C@@H](C(N)=O)[C@@H]4C=C[C@H]3C4)n2)cn1 [Example 105, (1S,2S,3R,4R)-3-{[5-chloro-2-({1-[(2R)-2-hydroxypropyl]-1H-pyrazol-4-yl}amino)pyrimidin-4-yl]amino}bicyclo[2.2.1]hept-5-ene-2-carboxamide] | < 100 nM
16 | COCCn1cc(Nc2ncc(Br)c(N[C@H]3[C@@H](C(N)=O)[C@@H]4C=C[C@H]3C4)n2)cn1 [Example 106, (1S,2S,3R,4R)-3-[(5-bromo-2-{[1-(2-methoxyethyl)-1H-pyrazol-4-yl]amino}pyrimidin-4-yl)amino]bicyclo[2.2.1]hept-5-ene-2-carboxamide] | < 100 nM
17 | NC(=O)[C@@H]1[C@H](Nc2nc(Nc3cnn([C@@H]4CCOC4)c3)ncc2Cl)[C@H]2C=C[C@@H]1C2 [Example 107, (1S,2S,3R,4R)-3-{[5-chloro-2-({1-[(3R)-tetrahydrofuran-3-yl]-1H-pyrazol-4-yl}amino)pyrimidin-4-yl]amino}bicyclo[2.2.1]hept-5-ene-2-carboxamide] | < 100 nM
18 | NC(=O)[C@@H]1[C@H](Nc2nc(Nc3cnn([C@H]4CCOC4)c3)ncc2Cl)[C@H]2C=C[C@@H]1C2 [Example 108, (1S,2S,3R,4R)-3-{[5-chloro-2-({1-[(3S)-tetrahydrofuran-3-yl]-1H-pyrazol-4-yl}amino)pyrimidin-4-yl]amino}bicyclo[2.2.1]hept-5-ene-2-carboxamide] | < 100 nM
19 | Cn1cc(Nc2ncc(C(F)(F)F)c(Nc3ccccc3C3(O)CNC3)n2)cn1 [Example 109, 3-[2-({2-[(1-methyl-1H-pyrazol-4-yl)amino]-5-(trifluoromethyl)pyrimidin-4-yl}amino)phenyl]azetidin-3-ol] | 100 to 1000 nM
20 | COCCOCCn1cc(Nc2ncc(Br)c(N[C@H]3[C@@H](C(N)=O)[C@@H]4C=C[C@H]3C4)n2)cn1 [Example 110, (1S,2S,3R,4R)-3-{[5-bromo-2-({1-[2-(2-methoxyethoxy)ethyl]-1H-pyrazol-4-yl}amino)pyrimidin-4-yl]amino}bicyclo[2.2.1]hept-5-ene-2-carboxamide] | < 100 nM
21 | CC(C)CCn1cc(Nc2ncc(Br)c(N[C@H]3[C@@H](C(N)=O)[C@@H]4C=C[C@H]3C4)n2)cn1 [Example 111, (1S,2S,3R,4R)-3-[(5-bromo-2-{[1-(3-methylbutyl)-1H-pyrazol-4-yl]amino}pyrimidin-4-yl)amino]bicyclo[2.2.1]hept-5-ene-2-carboxamide] | < 100 nM
22 | CC(C)n1cc(Nc2ncc(Br)c(N[C@H]3[C@@H](C(N)=O)[C@@H]4C=C[C@H]3C4)n2)cn1 [Example 112, (1S,2S,3R,4R)-3-({5-bromo-2-[(1-isopropyl-1H-pyrazol-4-yl)amino]pyrimidin-4-yl}amino)bicyclo[2.2.1]hept-5-ene-2-carboxamide] | < 100 nM
23 | Cn1cc(Nc2ncc(C(F)(F)F)c(Nc3ccccc3C3(O)CCC3)n2)cn1 [Example 115, 1-[2-({2-[(1-methyl-1H-pyrazol-4-yl)amino]-5-(trifluoromethyl)pyrimidin-4-yl}amino)phenyl]cyclobutanol] | 100 to 1000 nM
24 | NC(=O)[C@@H]1[C@H](Nc2nc(Nc3cnn([C@@H]4CCOC4)c3)ncc2Br)[C@H]2C=C[C@@H]1C2 [Example 116, (1S,2S,3R,4R)-3-{[5-bromo-2-({1-[(3R)-tetrahydrofuran-3-yl]-1H-pyrazol-4-yl}amino)pyrimidin-4-yl]amino}bicyclo[2.2.1]hept-5-ene-2-carboxamide] | < 100 nM
25 | NC(=O)[C@@H]1[C@H](Nc2nc(Nc3cnn([C@H]4CCOC4)c3)ncc2Br)[C@H]2C=C[C@@H]1C2 [Example 117, (1S,2S,3R,4R)-3-{[5-bromo-2-({1-[(3S)-tetrahydrofuran-3-yl]-1H-pyrazol-4-yl}amino)pyrimidin-4-yl]amino}bicyclo[2.2.1]hept-5-ene-2-carboxamide] | < 100 nM
26 | NC(=O)[C@@H]1[C@H](Nc2nc(Nc3cnn(C4CCC4)c3)ncc2Cl)[C@H]2C=C[C@@H]1C2 [Example 118, (1S,2S,3R,4R)-3-({5-chloro-2-[(1-cyclobutyl-1H-pyrazol-4-yl)amino]pyrimidin-4-yl}amino)bicyclo[2.2.1]hept-5-ene-2-carboxamide] | < 100 nM
27 | CS(=O)(=O)CCn1cc(Nc2ncc(Cl)c(N[C@H]3[C@@H](C(N)=O)[C@@H]4C=C[C@H]3C4)n2)cn1 [Example 119, (1S,2S,3R,4R)-3-{[5-chloro-2-({1-[2-(methylsulfonyl)ethyl]-1H-pyrazol-4-yl}amino)pyrimidin-4-yl]amino}bicyclo[2.2.1]hept-5-ene-2-carboxamide] | 100 to 1000 nM
28 | CS(=O)(=O)CCn1cc(Nc2ncc(Br)c(N[C@H]3[C@@H](C(N)=O)[C@@H]4C=C[C@H]3C4)n2)cn1 [Example 122, (1S,2S,3R,4R)-3-{[5-bromo-2-({1-[2-(methylsulfonyl)ethyl]-1H-pyrazol-4-yl}amino)pyrimidin-4-yl]amino}bicyclo[2.2.1]hept-5-ene-2-carboxamide] | < 100 nM

From patent publication US8426408B2, “Pyrimidine inhibitors of kinases” (AbbVie Inc., priority 2009, dated 2013)
